Data published in US20250186329A1, “A SKIN BRIGHTENING COMPOSITION” (Conopco, Inc., d/b/a UNILEVER, priority 2022, published 2025).
Marks after values point to notes of the source that are not given here.

tested on: co-cultures of HaCaT keratinocytes and melanocytes (neonatal primary human epidermal melanocytes); test: Melanin content assay (% cellular melanin vs control) in keratinocyte/melanocyte co-cultures; assay type: cell-based; conditions: percentage cellular melanin vs control; 72 h of active treatment; OD at 405 nm; active concentrations (wt %) as given per example
Description: Various samples containing actives were prepared and the % cellular melanin content was measured. The protocol for measuring the cellular melanin is summarized below:
Neonatal primary human epidermal melanocytes were sourced from Life Technologies. Melanocytes were maintained in Medium 254 supplemented with human melanocyte growth supplement (MGM). HaCaT keratinocytes were maintained in DMEM medium containing 10% heat inactivated FBS. All media were also supplemented with 10 U/mL penicillin G and 0.1 mg/mL streptomycin sulphate. Both cell types were maintained at 37° C. in a humidified incubator with 5% CO2 atmosphere. Maintenance and sub-culturing of cells were carried out as per the manufacturer's instructions.
For setup of co-cultures, 40,000 cells each of HaCaT keratinocytes and melanocytes were mixed in 1 mL of a 1:1 mix of MGM:KGM (KGM: Epilife medium supplemented with human keratinocyte growth supplement) and seeded as such per well, in 12 well Nunc plates.
Actives were prepared in media and test concentrations were added to cells along with relevant controls 24 h post seeding. After 72 h of active treatment, cell viability (using calcein method) and measurement of cellular melanin content was determined as described below.
After calcein fluorescence readings were obtained, cells were drained and fresh 0.15 mL of 1N NaOH (in 10% DMSO) per well was added. Cells were lysed by resuspension and incubation (60° C. for 1 h). Then, 0.1 mL of this lysate was transferred to a fresh 384-well plate and OD was measured at 405 nm in a TECAN M1000 plate reader. Melanin content was calculated as percentage cellular melanin vs control.

Row | Compound | % cellular melanin
1 | Inulin [B] | 86%
2 | CCCCCCc1ccc(O)cc1O [Example E, 4-hexyl resorcinol, reference compound] | 69* %
3 | Inulin [Example C] | 96%
